The term viability, T/C denotes the result in the treated group divided by that in the control group, in per cent. As a reminder, the pIC50 is the negative decadic logarithm of the IC50, by convention in mol/L.

pIC50: −log10 of the molar value. “And” between values parts separate entries of the source, which are not always exact repeats. Equal entries are not always repeated.

The assay deals with 993429-296-R-J1-PDC complex spheroid growth, percent test/control. Kind of assay: Anticancer human tumor 993429-296-R-J1-PDC patient-derived uterine sarcoma cell line growth inhibition [Asc]. The settings on record: for viability, T/C: stronger effect = lower value. The method, then: Multicellular complex tumor spheroid response to apoptosis pathway targeting inhibitors Alrizomadlin, Pelcitoclax, and Dasminapant in combination with a variety of drugs and investigational agents in selected tumor cell lines
The MDM2 inhibitor alrizomadlin, the Bcl-2/Bcl-xL inhibitor pelcitoclax, and the IAPs inhibitor dasminapant were evaluated both individually and in combination with standard of care and investigational anticancer small molecules within a complex spheroid model of solid tumors. . Complex spheroids include a stromal component modeled by human endothelial cells (HUVEC) and fibroblasts modeled by human mesenchymal stem cells (MSCs). The concentration ranges selected for each drug and investigational agent were based upon clinically achievable concentrations if the clinical Cmax of the agent was known.
Compounds. The drugs and investigational agents: alrizomadlin (APG-115; NSC831270), pelcitoclax (APG-1252; NSC835773), dasminapant (APG-1387;NSC834197), TAK-243 (NSC785004), copanlisib (NSC809693), olaparib (NSC753686), talazoparib (NSC767125), cobimetinib (NSC 768068), eltanexor (KPT-8602, NSC 794443), abemaciclib (NSC 768073), sotorasib (NSC818433), adagrasib (NSC 831453), MRTX-1133 (NSC 836407), Iadademestat (ORY1001, NSC 806812), and RMC-4630 (NSC839698), were obtained from the NCI Developmental Therapeutics Program Chemical Repository. The FDA-approved anticancer drug set is available from the Developmental Therapeutics Program at https://dtp.cancer.gov/organization/dscb/obtaining/available plates.htm. […] The stock solutions were prepared in dimethyl sulfoxide (DMSO, Sigma-Aldrich, St. Louis, MO, cat. D2650) at 800-fold the tested concentration and stored at -70 degrees C prior to their use. All drugs and investigational agents were tested over a range starting from a high concentration at or near the clinical Cmax and decreasing in half-log increments. If the clinical Cmax for an agent had not been determined, the highest concentration tested was 10 microM.
The patient-derived cancer (PDC) cell lines include five colon adenocarcinomas: 186277-243-T-J2-PDC, 616215-338-R-J1-PDC, 439559-082-T-J2-PDC, 463943-066-T-J2-PDC, and 519858-162-T-J1-PDC; three pancreatic carcinomas: 323965-272-R-J2-PDC, 521955-158-R6-J3-PDC, and 521955-158-R2-J5-PDC; two uterine sarcomas: 327498-152-R-J2-PDC and 993429-296-R-J1-PDC; two rhabdomyosarcomas: 755483-174-R-J1-PDC and 772245-204-R-J1-PDC; two soft tissue sarcomas: 126254-015-R-J1-PDC and 494315-158-R-J1-PDC; two malignant fibrous histiocytomas: 317291-083-R-J1-PDC and 596521-263-R-J1-PDC; two breast carcinomas: 171881-019-R-J1-PDC and 885512-296-R-J2-PDC; and one ovarian carcinoma: 6556581-035-R-J-PDC were obtained from the NCI PDMR, (https://pdmr.cancer.gov). The established cell lines HSSY-2 synovial sarcoma (RRID:CVCL 8719), SYO-1 synovial sarcoma (RRID:CVCL_7146), MPNST malignant peripheral neural sheath tumor were obtained from the Sloan Kettering Institute. The following established cell lines were purchased from the American Type Culture Collection (ATCC, Manassas, VA), Sor the received from the NCI repository:, PANC-1 pancreatic carcinoma (CRL-1469, RRID:CVCL_0480), OVCAR-5 ovarian carcinoma (RRID:CVCL_1628), OVCAR-8 ovarian carcinoma (RRID:CVCL_1629), , MCF-7 breast carcinoma (CRL-12584, RRID:CVCL_0031), MDA-MB-231 breast carcinoma (CRL-12532, RRID:CVCL_0062), NCI-H1876 small cell lung carcinoma (CRL-5902, RRID:CVCL_1503), NCI-H510A small cell lung carcinoma (HTB-184, RRID:CVCL_1565), NCI-H1417 (CRL-5869, RRID:CVCL_1469), and NCI-H196 small cell lung carcinoma (CRL-5823, RRID:CVCL_1509). Dr. Peter Houghton (Greehey Children's Cancer Research Institute, University of Texas Health Science Center, San Antonio, TX) provided Rh-18 rhabdomyosarcoma (RRID:CVCL_1659). Pooled donor human umbilical vein endothelial cells (HUVEC, Lonza, cat. CC-2519) and human mesenchymal stem cells (hMSC, Lonza, cat. PT-2501) were purchased from Lonza (Walkersville, MD).
Cell Culture. […]
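Also: spheroids exposed to compounds for seven days.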

Take `C#Cc1c(F)ccc2cc(O)cc(-c3ncc4c(N5CC6CCC(C5)N6)nc(OCC56CCCN5CC(F)C6)nc4c3F)c12` (configuration not stated): the viability, T/C is 102% and 88% and 97.9% (compound 0.0316 µM); 108% and 101% and 89.1% (compound 0.1 µM); 86% and 86.7% and 88.8% (compound 0.316 µM); 93.3% and 82.2% and 100% (compound 1 µM); 91.9% and 81.4% and 106% (compound 3.16 µM). The pIC50 (curve of compound) was < 5.00 and 5.30 and 5.25.

Consider `C=C(F)C(=O)N1CCN(c2nc(OCC3CCCN3C)nc3c2CCN(c2cccc4cccc(Cl)c24)C3)CC1CC#N` (configuration not stated), for which the viability, T/C by setting is: (compound 0.0316 µM) 85.9% and 98.6% and 98.2%; (compound 0.1 µM) 93.5% and 103% and 95.2%; (compound 0.316 µM) 82.5% and 88.7% and 91.7%; (compound 1 µM) 43.8% and 63.6% and 99.8%; (compound 3.16 µM) 6.98% and 7.87% and 29.6%; (compound 10 µM) 0.4% and 0.19% and 0.21%. The negative-log IC50 (pIC50) (curve of compound) was 6.08 and 5.89 and 5.65.

As to `C=CC(=O)N1CCN(c2nc(=O)n(-c3c(C)ccnc3C(C)C)c3nc(-c4c(O)cccc4F)c(F)cc23)C(C)C1` (configuration not stated), the viability, T/C by setting is: (compound 0.0316 µM) 90.9% and 96.8% and 96.9%; (compound 0.1 µM) 104% and 92.1% and 93.1%; (compound 0.316 µM) 104% and 92.4% and 105%; (compound 1 µM) 102% and 106% and 110%; (compound 3.16 µM) 64.9% and 109% and 115%; (compound 10 µM) 72.8% and 77% and 94%. Further, the negative logarithm of the IC50 (pIC50) (curve of compound) was below 5.00.

In the case of `CCN1C(C(=O)NC23CCC(C(=O)O)(CC2)CC3)C(c2cccc(Cl)c2F)C2(C(=O)Nc3cc(Cl)ccc32)C12CCCCC2` (configuration not stated), for the setting “compound 0.00949 µM”, the viability, T/C is 92.7% and 92.5%. Further, the pIC50 runs as follows: (compound alone, run of 09/27/2022) below 5.52; (curve of compound) below 5.52.

In the case of `CCN1CCN(Cc2ccc(Nc3ncc(F)c(-c4cc(F)c5nc(C)n(C(C)C)c5c4)n3)nc2)CC1`, the viability, T/C is 90.1% (2×) and 100% (compound 0.00316 µM); 86.7% and 111% and 99.3% (compound 0.01 µM); 94.1% and 105% and 92.7% (compound 0.0316 µM); 85.6% and 98.3% and 93.6% (compound 0.1 µM); 98.6% and 119% and 100% (compound 0.316 µM); 88.5% and 94.9% and 86.3% (compound 1 µM). For the setting “curve of compound”, the negative logarithm of the IC50 (pIC50) is below 6.00.

`CNC(C)C(=O)NC1CN(S(=O)(=O)c2cccc(S(=O)(=O)N3CCC4CCC(C(=O)NC(c5ccccc5)c5ccccc5)N4C(=O)C(NC(=O)C(C)NC)C3)c2)CCC2CCC(C(=O)NC(c3ccccc3)c3ccccc3)N2C1=O` (configuration not stated): the viability, T/C was 80% and 76.5% (compound 0.00316 µM); 68.6% [middle of 15 runs] (compound 0.01 µM); 62.4% [middle of 15 runs] (compound 0.0316 µM); 55.9% [middle of 15 runs] (compound 0.1 µM); 50.4% [middle of 15 runs] (compound 1 µM). For the same compound, the negative logarithm of the IC50 (pIC50) (curve of compound) is below 6.00.

As to `COc1c(OCCCN2CCOCC2)ccc2c3n(c(=NC(=O)c4cnc(N)nc4)nc12)CCN3`, the viability, T/C (compound 0.00316 µM) is 91.3% and 101% and 95.5%; the viability, T/C (compound 0.01 µM) was 76.7% and 74.9% and 85.9%; the viability, T/C (compound 0.0316 µM) is 32.1% and 39% and 47.7%; the viability, T/C (compound 0.1 µM) is 7.79% and 8.14% and 20.2%; the viability, T/C (compound 0.316 µM) was 3.91% and 3.64% and 6.96%; the viability, T/C (compound 1 µM) was 1.4% and 1.43% and 2.5%. Also, the negative logarithm of the IC50 (pIC50) (curve of compound) is 7.70 and 7.67 and 7.50.

With `Cc1c(S(C)(=O)=O)c(-c2cc(F)cc(N3CCN(c4ccc(NS(=O)(=O)c5ccc(NC(CCN6CCC(C(=O)OCCCP(=O)(O)O)CC6)CSc6ccccc6)c(S(=O)(=O)C(F)(F)F)c5)cc4)CC3)c2)c(-c2ccc(Cl)cc2)n1C(C)C` (configuration not stated), the viability, T/C is, setting by setting: (compound 0.316 µM) 60.7% [middle of 14 runs]; (compound 3.16 µM) 49.6% [middle of 14 runs].

As to `Cc1nc(N2CCC3(CC2)COC(C)C3N)c(CO)nc1Sc1ccnc(N)c1Cl` (configuration not stated), the viability, T/C is, setting by setting: (compound 0.00949 µM) 94.6% and 84.2% and 83.6%; (compound 0.03 µM) 93.1% and 77% and 87.6%; (compound 0.0949 µM) 75.2% and 65.9% and 54.9%; (compound 0.3 µM) 58.9% and 43% and 42.1%; (compound 0.949 µM) 49% and 32.2% and 34.5%; (compound 3 µM) 40.3% and 25.8% and 27.8%. For the same compound, the negative logarithm of the IC50 (pIC50) (curve of compound) is 6.15 and 6.67 and 6.84.

Regarding `Cn1ncnc1[C@H]1c2n[nH]c(=O)c3cc(F)cc(c23)N[C@@H]1c1ccc(F)cc1`, the viability, T/C runs as follows: (compound 0.000316 µM) 92.8% and 98.9% and 94.3%; (compound 0.001 µM) 93.2% and 97.5% and 95.5%; (compound 0.00316 µM) 83.8% and 99.4% and 81.2%; (compound 0.01 µM) 74.3% and 92% and 84.6%; (compound 0.0316 µM) 62.5% and 70.2% and 57.7%; (compound 0.1 µM) 35.8% and 69.9% and 42%. In addition, the negative-log IC50 (pIC50) (curve of compound) was 7.28 and < 7.00 and 7.23.

Turning to `NC(=O)C(=Cn1cnc(-c2cc(C(F)(F)F)cc(C(F)(F)F)c2)n1)c1cncnc1`, the viability, T/C runs as follows: (compound 0.000949 µM) 94.3% and 102% and 110%; (compound 0.003 µM) 82.4% and 87.5% and 105%; (compound 0.00949 µM) 76.6% and 76% and 91.7%; (compound 0.03 µM) 41.9% and 34.6% and 60.8%; (compound 0.0949 µM) 17% and 17.8% and 30.1%; (compound 0.3 µM) 8.93% and 7.15% and 11.8%. In addition, for the setting “curve of compound”, the negative logarithm of the IC50 (pIC50) is 7.64 and 7.70 and 7.34.

Regarding `NC1CCC(NC2CC2c2ccccc2)CC1` (configuration not stated), the viability, T/C (compound 0.000316 µM) was 72.9% and 80.7% and 109%; the viability, T/C (compound 0.001 µM) was 70.1% and 86.3% and 87%; the viability, T/C (compound 0.00316 µM) is 85.3% and 78.1% and 85.6%; the viability, T/C (compound 0.01 µM) was 78.4% and 94.6% and 91.1%; the viability, T/C (compound 0.0316 µM) is 68% and 88.5% and 86.8%; the viability, T/C (compound 0.1 µM) was 74.9% and 76.6% and 79.7%. Besides, under “curve of compound”, the pIC50 was below 7.00.

Turning to `O=C(c1cc(Cc2n[nH]c(=O)c3ccccc23)ccc1F)N1CCN(C(=O)C2CC2)CC1`, the viability, T/C reads like this: (compound 0.0316 µM) 83.4% and 99.6% and 106%; (compound 0.1 µM) 84.4% and 88.2% and 103%; (compound 0.316 µM) 90.3% and 89.3% and 93%; (compound 1 µM) 72.8% and 82.6% and 105%; (compound 3.16 µM) 67.7% and 68.7% and 83.8%; (compound 10 µM) 25.3% and 43% and 44.8%. Also, the negative logarithm of the IC50 (pIC50) (curve of compound) was 5.31 and 5.13 and 5.07.

For `O=C(c1ccc(F)c(F)c1Nc1ccc(I)cc1F)N1CC(O)([C@@H]2CCCCN2)C1`, the viability, T/C was 94.3% and 75.1% and 94.5% (compound 0.00316 µM); 86% and 69.7% and 83.4% (compound 0.01 µM); 62.6% and 54.8% and 79.4% (compound 0.0316 µM); 41% and 34.7% and 70.9% (compound 0.1 µM); 14.8% and 10.7% and 39.1% (compound 0.316 µM); 1.26% and 1.77% and 3.59% (compound 1 µM). Moreover, the pIC50 (curve of compound) was 7.21 and 7.37 and 6.67.
